Patent US20150212068A1, “Cholyl-L-Lysyl-Fluorescein Assay” (Novassay SA, priority 2012, published 2015)

What was measured:
[1] = Stability of CLF spiked directly in human plasma at room temperature and 4° C. (Test 3), HPLC-MS/MS; assay type: in vitro ADME; conditions: for CLF concentration: human plasma spiked 100 ng/ml, mean ± SEM (n = 2); for CLF remaining: human plasma, vs To; for percentage of compound remaining (by comparing with content at To), lowest over incubation: plasma, up to 24 h
Description: Test 3: […] The final concentration of CLF was of 100 ng/ml. Two aliquots of 200 μl of plasma spiked with CLF were taken (To) and the remaining solution was divided in 2 equal fractions. One fraction was incubated at room temperature and the second one was incubated at 4° C. Two aliquots of 200 μl were taken from both fractions after 30 min, 120 min and 24 h of incubation. Samples were stored at −70° C. until further analysis. […] Thus, a stock solution of IS at 100 μg/ml in acetonitrile was 50-fold diluted in acetonitrile in order to obtain a final concentration of 2 μg/ml. Then, 200 μl of this solution were added to each plasma sample in order to precipitate the proteins. Samples were vortexed/mixed and centrifuged 5 min at 20,000 g (4° C.). After centrifugation, the clear supernatant (around 250 μl) was transferred into 1.2 ml HPLC glass vials and sealed. Samples were placed into the refrigerated autosampler and 20 μl were injected into the HPLC-MS/MS system. Test samples were injected twice. […] The injected volume of sample was 20 μl and the “full loop” mode was applied. The temperature of the analytical column was kept at 30° C. CLF and its IS were separated on an Acclaim 120 C18 column (5 μm, 2.1×100 mm, Dionex) by elution with a linear gradient of acetonitrile in water as described in Table 6. An ion trap mass spectrometer equipped with an ESI interface was operated in the positive ionization mode. For each compound, the most abundant ion formed in MS was selected for MS/MS fragmentations. In order to increase the sensitivity and the specificity of the method, the MRM mode was selected. The most specific daughter ions formed in MS/MS were used for quantification.

[2] = Stability (LTD samples) of CLF in plasma measured with the CLF ELISA; assay type: in vitro ADME, human
Description: These conditions were used for all assays described in Phase 2a (above) and Phase 2b (below). See Appendix B and C for buffer and conjugate formulations respectively: • Add 25 μl/well of sample or standard (0-1000 ng/ml CLF in Buffer #24) to the wells of a streptavidin-coated microtitre plate (NovAssay, F2SAC). • Add 100 μl/well of fluorescein-biotin (Sigma B9431) at 20 ng/ml in Buffer #24+0.2% w/v ANS (Sigma 10417). • Add 100 μl/well of anti-fluorescein HRP (NovAssay, DV047/17-3) at 100 ng/ml in Buffer #24. • Incubate the plate for 30 minutes at room temperature. • Wash the plate 3 times with 800 μl/well Buffer #29 and tap the plate dry. • Add 100 μl/well of SureBlue Reserve TMB Substrate (KPL) and incubate the plate for 10 minutes at room temperature. • Stop the substrate reaction by adding 100 μl/well of 1M HCl and read the absorbance at 450 nm wavelength (ThermoFisher Scientific, Multiskan FC).
The samples provided (LTD) included 8 “standards” (no details of their preparation were given, apart from the concentration which ranged from 0 to 100 ng/ml) and samples which were presumed to be stability samples (no details of their preparation were given). The stability work appeared to have been undertaken on 3 individual donor samples. Note, that 2 of the donor samples were heavily haemolysed.

[3] = room temperature (25 ± 2° C.), 0.0 hours
[4] = room temperature (25 ± 2° C.), 0.5 hours
[5] = room temperature (25 ± 2° C.), 2.0 hours
[6] = room temperature (25 ± 2° C.), 24.0 hours

SMILES: CC(CCC(=O)NC(CCCCNC(=S)Nc1ccc(-c2c3ccc(=O)cc-3oc3cc(O)ccc23)c(C(=O)O)c1)C(=O)O)C1CCC2C3C(O)CC4CC(O)CCC4(C)C3CC(O)C12C [CLF, Cholyl-L-Lysyl-Fluorescein]
- CLF stability directly in plasma ([1]; 4° C. and room temperature, 24 h): stable for 24 h
- CLF concentration ([1]; 4° C., 0.0 hours): 101.9 ± 4.6 ng/mL
- CLF concentration ([1]; 4° C., 0.5 hours): 101.4 ± 3.5 ng/mL
- CLF concentration ([1]; 4° C., 2.0 hours): 89.9 ± 3.4 ng/mL
- CLF concentration ([1]; 4° C., 24.0 hours): 94.5 ± 3.6 ng/mL
- CLF concentration [1, 3]: 101.9 ± 4.6 ng/mL
- CLF concentration [1, 4]: 85.3 ± 0.0 ng/mL
- CLF concentration [1, 5]: 93.2 ± 0.0 ng/mL
- CLF concentration [1, 6]: 100.7 ± 3.3 ng/mL
- CLF remaining ([1]; 4° C., 0.0 hours): 100.0%
- CLF remaining ([1]; 4° C., 0.5 hours): 99.5%
- CLF remaining ([1]; 4° C., 2.0 hours): 88.2%
- CLF remaining ([1]; 4° C., 24.0 hours): 92.7%
- CLF remaining [1, 3]: 100.0%
- CLF remaining [1, 4]: 83.7%
- CLF remaining [1, 5]: 91.4%
- CLF remaining [1, 6]: 98.8%
- plasmatic concentrations measured ([1]; plasma spiked with 100 ng/ml, 4° C. and room temperature, 0-24 h): 85.3 to 101.9 ng/mL
- percentage of compound remaining (by comparing with content at To), lowest over incubation ([1]; 4° C.): ≥ 88.2%
- percentage of compound remaining (by comparing with content at To), lowest over incubation ([1]; room temperature): at least 83.7%
- comparison of storage temperatures ([2]; LTD plasma stability samples, 4° C. vs RT (~18-22° C.)): 4 °C storage is slightly better than RT
- percent loss of CLF ([2]; LTD plasma stability samples, 24 hours): approximately 10%
- percent loss of CLF ([2]; PLASMA 2.4, T0): 0%
- percent loss of CLF ([2]; PLASMA 2.4, T30): −11%
- percent loss of CLF ([2]; PLASMA 2.4, T120): −12%
- percent loss of CLF ([2]; PLASMA 2.4, T24 h): −11%
- percent loss of CLF ([2]; PLASMA 2.5.1, T0): 0%
- percent loss of CLF ([2]; PLASMA 2.5.1, T30, 4° C.): 3%
- percent loss of CLF ([2]; PLASMA 2.5.1, T30 RT): −5%
- percent loss of CLF ([2]; PLASMA 2.5.1, T120 4° C.): 1%
- percent loss of CLF ([2]; PLASMA 2.5.1, T120 RT): −6%
- percent loss of CLF ([2]; PLASMA 2.5.1, T24 h 4° C.): −9%
- percent loss of CLF ([2]; PLASMA 2.5.1, T24 h RT): −13%
- percent loss of CLF ([2]; PLASMA 2.5.2, T0): 0%
- percent loss of CLF ([2]; PLASMA 2.5.2, T30, 4° C.): 10%
- percent loss of CLF ([2]; PLASMA 2.5.2, T30 RT): 3%
- percent loss of CLF ([2]; PLASMA 2.5.2, T120 4° C.): 10%
- percent loss of CLF ([2]; PLASMA 2.5.2, T120 RT): 1%
- percent loss of CLF ([2]; PLASMA 2.5.2, T24 h 4° C.): −5%
- percent loss of CLF ([2]; PLASMA 2.5.2, T24 h RT): −14%
